The values below come from patent publication US6878712B1, “Amides as inhibitors for pyruvate dehydrogenase” (AstraZeneca AB, priority 1999, dated 2005).

For series [1] the following is noted: cited from earlier work.
The next series concerns PDH. The settings on record: cited from earlier work.

Counter-ions that a name gives are not always drawn.

Compound `C[C@@](O)(C(=O)N1CCC(C(=O)c2ccc(F)cc2)CC1)C(F)(F)F` displayed a melting point of 78 to 79 °C. The same measure, in the same setting: under `C[C@@H]1CN(C(=O)[C@@](C)(O)C(F)(F)F)[C@@H](C)CN1S(=O)(=O)c1ccc(C#N)cc1` stands 186 to 187 °C; under `CCS(=O)(=O)N1C[C@H](C)N(C(=O)[C@@](C)(O)C(F)(F)F)C[C@H]1C`, 142 to 144 °C. The same measure, in the same setting: with `C[C@@H]1CN(C(=O)[C@@](C)(O)C(F)(F)F)[C@@H](C)CN1S(=O)(=O)c1cccs1` the figure was 116 to 117 °C; with `C[C@@H]1CN(C(=O)[C@@](C)(O)C(F)(F)F)[C@@H](C)CN1S(=O)(=O)c1ccc(C(=O)O)cc1`, 194 to 196 °C; with `C[C@@H]1CN(C(=O)[C@@](C)(O)C(F)(F)F)[C@@H](C)CN1S(=O)(=O)c1ccc(C(=O)N(C)C)cc1`, 86 to 87 °C. Same read-out and setting: under `C[C@@H]1CN(C(=O)[C@@](C)(O)C(F)(F)F)[C@@H](C)CN1S(=O)(=O)c1ccc(F)cc1` stands 174 to 175 °C.

In turn, `C[C@@H]1CN(C(=O)[C@@](C)(O)C(F)(F)F)[C@@H](C)CN1C(=O)c1ccc(F)cc1` showed a melting point of 177 to 178 °C. Consider `C[C@@](O)(C(=O)N1CCC(N)CC1)C(F)(F)F` (as salt: hydrochloride), for which the melting point lay within 245 to 246 °C. As to `O=C(O)C(Cl)Cl` [DCA, dichloroacetic acid], the plasma glucose entry in series [1] (after repeated administration) is “significant decrease in plasma glucose”. The glycaemia result in series [1] (in vivo) is recorded as “reducing glycaemia”. In the series on PDH (after acute administration in animals), the “activity of PDH” value was “increases the activity of PDH”. Moreover, the “proportion of PDH in its active form” value with PDH (single administration, 150 mg/kg, intraperitoneally) was “increased the proportion of PDH in its active form”.

The term melting point denotes the temperature, or range, at which the solid turns liquid.
